According to patent publication US20100233093A1, “Magnetic resonance imaging contrast agent with paramagnetic-inositol phosphates complexes” (GACHON UNIVERSITY OF MEDICINE & SCIENCE INDUSTRY-ACADEMIC …, priority 2009, published 2010):
Several values for one entry are separate records, joined by “and”; a condition that tells them apart may be missing. Equal entries are not always repeated.

Experiments:
[1] = Stability constant (K) from thermodynamic parameters of ITC analysis; assay type: physicochemical; conditions: calculated from ΔG of ITC analysis
Excerpt: A stability constant (formation constant, binding constant) is an equilibrium constant for the formation of a complex in solution. It is a measure of the strength of the interaction between the reagents that come together to form the complex. The thermodynamics of metal ion complex formation provides much significant information. The chelate effect, below, is best explained in terms of thermodynamics. An equilibrium constant is related to the standard Gibbs free energy change for the reaction.

[2] = ITC analysis of Ca^2+ binding to phytate; conditions: Ca^2+ stronger than Mg^2+
[3] = ITC analysis of Gd^3+ binding to EDTA; conditions: higher affinity than EDTA

SMILES | Stability Constant (K) [1] [M⁻¹] | binding affinity for Ca^2+ relative to Mg^2+ [2] [fold] | affinity for Gd^3+ relative to EDTA [3]
O=C([O-])CN(CCN(CC(=O)[O-])CC(=O)[O-])CC(=O)[O-].[Gd+3] [Gd-EDTA] | 4.4e+29 |  | 
O=P(O)(O)OC1C(OP(=O)(O)O)C(OP(=O)(O)O)C(OP(=O)(O)O)C(OP(=O)(O)O)C1OP(=O)(O)O (centres unmarked) [phytate] |  | 100 | 10 fold and 10- to 100 fold
O=C([O-])CN(CCN(CC(=O)[O-])CC(=O)O)CCN(CC(=O)[O-])CC(=O)O.[Gd+3] [Gd-DTPA] | 1.2e+28 |  | 
O=C([O-])CN1CCN(CC(=O)[O-])CCN(CC(=O)O)CCN(CC(=O)[O-])CC1.[Gd+3] [Gd-DOTA] | 1.3e+29 |  | 
